Test results reported in patent publication US7347970B2, “Biocides based on silanol terminated silanes and siloxanes” (University of Florida Research Foundation, Inc., priority 2004, dated 2008).

How the values were obtained:
Assay type in all cases: cell-based
[1] = tested on: E. coli; assay: Antimicrobial (bioactivity) test, plate counts and dilution method, log reduction; settings: for bioactivity against E. coli: with cosolvent propylene glycol n-propyl ether, FIG. 6
Experimental: Bioactivity (toxicity) tests were performed using silanols according to the invention along with some controls. E. coli was provided as the target microorganism. […] 20th ed. L. S. Clesceri, A. E. Greenberg, A. D. Eaton (eds.) Washington, D.C. was employed to measure the number of viable cells after the bioactivity tests. The collected sample underwent serial dilutions in which the original sample collected was diluted in a series of dilution tubes. Each succeeding dilution tube will have only one-tenth the number of microbial cells as the preceding tube. Then the samples of the dilution were used to inoculate Petri plates containing solid medium. The sample on the plates was plated evenly over the surface of the solid medium. Colonies grew only on surface of medium and could be counted. This count was used to estimate the number of viable bacterial in the original sample.
Log reduction represents the number of E. coli eliminated through the silanol or other chemical treatment. The experiments were operated for an hour with proper stirring in aqueous solution. […] Log reduction 8 represents the detection limit for the experiment performed, and thus represents complete removal.
(§1) Nine (9) ml of D.I. water was mixed with 1 ml of E. coli solution, and antimicrobial materials for 1 hr with magnetic stirring, then sampling was carried out. The plate counting method as described above was employed to measure the viability of the E. coli.

[2] = tested on: E. coli; assay: Minimum lethal concentration (MLC) against E. coli; settings: for minimum lethal concentration compared with corresponding alcohol: E. coli, FIG. 10
Experimental: The minimum lethal concentration against E. coli for each silanol is defined as the maximum dilution of the product that will kill a test organism. […] The antimicrobial effect increased with an increase in the number of the alkyl chain of the substituent R, in the order of methyl<ethyl<n-propyl<n-butyl as shown FIG. 5.
Antimicrobial test was carried out to compare the bioactivity of fragrance ingredient of alcohols and the corresponding silanols according to the invention against E. coli. Alcohols, 2-methyl-1-phenyl-2-propanol corresponding to benzyldimethylsilanol, 2-methyl-4-phenyl-2-butanol corresponding to phenethyldimethylsilanol, were obtained from Sigma-Aldrich, and the silanols were prepared by the hydrolysis of chlorosilane.
as §1

[3] = tested on: E. coli; assay: Antimicrobial (bioactivity) test, plate counts and dilution method, log reduction; settings: 0.2 (% g/g), 10 minute mixing, FIG. 3; below detection limit
[4] = 2 (% g/g), FIG. 4, complete removal
[5] = 0.1% g/g with cosolvent propylene glycol n-propyl ether, FIG. 6/7

| Compound | log reduction of E. coli [1, 4] | log reduction of E. coli [1, 5] [log] | also measured |
| --- | --- | --- | --- |
| C[Si](C)(O)CCC(F)(F)F [3,3,3-trifluoropropyldimethylsilanol] | eight |  |  |
| C[Si](C)(O)Cc1ccccc1 [Benzyldimethylsilanol (UF), Benzyldimethylsilanol] |  |  | minimum lethal concentration compared with corresponding alcohol [2]: lower than their corresponding alcohols |
| C[Si]1(C)O[Si](C)(C)O[Si](C)(C)O[Si](C)(C)O1 [D4, octamethylcyclotetrasiloxane, reference compound] |  |  | bioactivity against E. coli [1]: did not provide significant bioactivity |
| C[Si](C)(O)CCc1ccccc1 [Phenethyldimethylsilanol (UF), Phenethyldimethylsilanol] |  |  | minimum lethal concentration compared with corresponding alcohol [2]: lower than their corresponding alcohols |
| C[Si](C)(O)c1ccccc1 [Phenyldimethylsilanol] | eight |  |  |
| CC(C)(C)O [t-butanol, reference compound] |  |  | bioactivity against E. coli [1]: did not provide significant bioactivity |
| CC(C)(C)[Si](C)(C)O [t-butyldimethylsilanol] |  | 8 |  |
| CC[Si](O)(CC)CC [triethylsilanol] | eight | 8 | log reduction of E. coli ([1]; 2.5 (% g/g), FIG. 2, 8 = detection limit): 8 log; antimicrobial effect (log reduction of E. coli) ([1]; 10 (% g/g), one hour stirring in aqueous solution, FIG. 1): high antimicrobial effect; antimicrobial effect by minimum lethal concentration ([2]; FIG. 5): strong antimicrobial effect; reduction of E. coli [3]: more than eight |
| C[Si](C)(C)O [trimethyisilanol] |  | 8 |  |
| C=C[Si](C)(C)O [vinyldimethylsilanol] | eight |  |  |
| diphenylmethylsilanol |  | 8 |  |
| vinylphenylmethylsilanol | eight |  |  |
